Square brackets hold non-standard residues; d marks the D form. Ends that are not written are not given here.
Test system: normotensive Sprague-Dawsley rats
Test: In vivo activity: blood pressure and heart rate after intravenous dosing in catheterised rats
Design: species or system rat
Experimental: Male Sprague-Dawley rats obtained from Charles River Laboratories, Wilmington, Mass., and weighing 276-300 g, were group housed at 22° C. and kept on 12 hour light/dark cycle. Food and water were provided ad lib.
Animals were anesthetized with sodium pentobarbital (65 mg/kg) and under sterile conditions a one-inch incision was made in the fold of the left leg to expose the femoral blood vessels. Two lengths of PE-50 tubing filled with 10% heparin were inserted into the left femoral artery and left femoral vein for measurement of blood pressure and for drug delivery, respectively. The tubings were tunneled under the skin and exposed through the mid-scapular region. Animals were allowed at least 24 hours recovery prior to experiments.
A force transducer (Spectramed Model P23XL, Grass Instruments, Quincy, Mass., USA), and tachograph (Model 7P44D, Grass Instruments) was used for recording of systolic and diastolic pressures and heart rate from the femoral artery catheter. Patency of catheters was verified by flushing with either saline or 10% heparin.
A dose of either 30, 100, 500, 800 or 1000 nM/kg ([…]) of NPY27-36 (D-Tyr^27,36, D-Thr^32) (prepared as described in Example 1 above), or saline was delivered to the animal via the catheter in the left femoral vein. Changes in systolic and diastolic pressures and heart rater were recorded from the catheter in the left femoral artery over a 10 minute time interval.

[1] = given intraveneously, doses 30-1000 nM/kg, recorded over 10 minutes, normotensive rats

## [dY]INLI[dT]RQR[dY]-NH2 [NPY27-36 (D-Tyr^27,36, D-Thr^32)]
Dose 30 nM/kg i.v.
  changes in mean arterial pressure and heart rate vs saline: failed to produce changes that were significantly different from saline treatment
Dose 100 nM/kg i.v.
  changes in mean arterial pressure and heart rate vs saline: failed to produce changes that were significantly different from saline treatment
Dose 500 nM/Kg i.v.
  mean arterial pressure vs saline-treated controls: significantly different decreases
Dose 500 nM/kg i.v.
  heart rate vs saline controls: significantly different increases
Dose 800 nM/Kg i.v.
  mean arterial pressure vs saline-treated controls: significantly different decreases
Dose 1000 nM/Kg i.v.
  mean arterial pressure vs saline-treated controls: significantly different decreases
Dose 1000 nM/kg i.v.
  heart rate vs saline controls: significantly different increases
[1]
  heart rate: increase
  mean arterial pressure: dose-dependent decrease
